Laboratory results as given in patent US20120009601A1, “METHODS AND COMPOSITIONS FOR REPROGRAMMING CELLS” (THE GENERAL HOSPITAL CORPORATION, priority 2010, published 2012).
“Also recorded” adds a separate entry of the source.

Experiments:
[1] = tested on: induced hepatocyte-like cells (iHep); test: Generation of human iPS cells (iPS-hHepC) from induced hepatocyte-like cells (iHep); format: cell-based; details: 96 hr
Procedure: Human induced pluripotent stem (iPS) cells were generated from the hepatocyte-like cells that had been generated from human hepatoma cells, using 5′-aza-2′-deoxycytidine (5-AZAC) plus trichostatin A (TSA) without Oct3/4 and c-Myc. The iHep were maintained using a medium for Primate ES cell culture supplemented with 40 ng/ml of hepatocytes growth factor and 20 ng/ml of epidermal growth factor. Furthermore, 500 nM 5′-aza-2′ deoxycytidine (5-AZAC), 150 nM trichostatin A (TSA), 1 μM EMD 616452 as an inhibitor for Tgf beta receptor I kinase/activin-like kinase 5 (Alk5) and 0.5 mM valproic acid (VPA) were administered in the Primate ES cell medium for 96 hr. After 14 days, human iPS cells (iPS-hHepC) were established. Oct3/4 was reactivated by 5-AZAC+TSA. Furthermore, Sox2 and Klf4 were reactivated by EMD 616452 and VPA, respectively.

[2] = tested on: human iPS cells having wild-types p53; test: PRIMA-1 treatment of human iPS cells carrying wild-type p53 (p53-dependent apoptosis); format: cell-based; details: PRIMA-1 20 μM; human iPS cells with wild-type p53
[3] = tested on: human iPS cells which carry mutant p53; test: PRIMA-1 treatment of human iPS cells carrying mutant p53 (p21 expression, p53-dependent apoptosis); format: cell-based; details: PRIMA-1 20 μM
Procedure: Next, human iPS cells that carry mutant p53 were selected and treated with PRIMA-1 (20 μM).

[4] = tested on: human iPS cells that carry mutant p53; test: Evaluation of cancerous risk: microvessel density (MVD) within teratomas from human iPS cell lines in mice; format: in vivo; details: cells treated with PRIMA-1 20 μM; teratomas in immunodeficient mice, anti-CD31 immunofluorescence
From the text: The various human iPS cell lines (No. 1-No. 4) were inoculated intramuscularly into immunodeficient mice (Rag2^−/− Il2rg^−/−). Then, microvessel density (MVD) was compared within teratomas in mice among each group. Furthermore, for angiogenesis in teratomas from each human iPS cell lines, microvessel density (MVD) per high-powered field (h.p.f.) of teratomas was quantified by human-specific anti-CD31 immunofluorescence. n=3-6; All values were mean±s.e.m.
By using microvessel density analysis (MVD) within SCID mice that were transplanted with ChiPS cell lines, risk evaluation of malignant transformations were performed for human iPS cell lines established by various methods (3) (4) (5) (6), including the results described herein (FIG. 9). […] Then, p53-175N, p53-175S and p53-175D were identified as p53-mutational spots in human iPS cells which carry mutant p53, with codon 175 in human p53 being known as one mutational spot in human cancer (7).

CCCC(CCC)C(=O)O [VPA, valproic acid]
Klf4 reactivation ([1]; 0.5 mM VPA, Primate ES cell medium): reactivated

O=C1C2CCN(CC2)C1(CO)CO [PRIMA-1, 2,2-Bis(hydroxymethyl)-1-azabicyclo[2.2.2]octan-3-one]
induction of p53-dependent apoptosis [2]: not observed; also recorded: not found | induction of p53-dependent apoptosis ([3]; human iPS cells that have mutant p53): induction of p53-dependent apoptosis | expression of p53 target genes p21 ([3]; human iPS cells which carry mutant p53): induced | MVD in human iPS cells carrying mutant p53 [4]: equivalent to that of human iPS cell lines established by small molecules

Cc1cccc(-c2[nH]ncc2-c2ccc3ncccc3n2)n1 [EMD 616452]
Sox2 reactivation ([1]; 1 μM EMD 616452, Primate ES cell medium): reactivated
